# According to patent US10344019B2 (priority 2010, dated 2019):
# Read-outs that look alike come from different tables or passages of the source.
# How the values were obtained:
# Experiment in all cases: microbe, parasite or virus in culture
# Assay type in all cases: cell-based
# [1] = test system: HCV 1a RLuc cells (dicistronic genotype 1a H77 replicon, RLuc reporter); conditions: Hepatitis C virus, read-out: 1a
# Method: (§1) Evaluation of cell-based anti-HCV activity: Antiviral potency (EC50) was determined using a Renilla luciferase (RLuc)-based HCV replicon reporter assay. To perform the assay for genotype 1 and 2a JFH-1, HCV 1b RLuc cells (harboring a dicistronic genotype 1b Con1 replicon that encodes a RLuc reporter), or HCV 1a RLuc cells (harboring a dicistronic genotype 1a H77 replicon that encodes a RLuc reporter), or HCV 2a JFH-1 Rluc cells (harboring a dicistronic genotype 2a JFH-1 replicon that encodes a RLuc reporter) were dispensed into 384-well plates. To perform the assay for genotype 2a (with M31 present) or 2b, HCV 2a Rluc or 2b Rluc cells (both with M31 present) harboring a dicistronic NS5A chimeric genotype 2a JFH-1 replicon that encodes a RLuc reporter and either genotype 2a J6 strain NS5A gene or genotype 2b MD2b-1 NS5A gene (based on Los Alamos HCV database isolates, both with M31 present) respectively, were dispensed into 384-well plates. To perform the assay for genotype 3 and 4, HCV 3a RLuc or 4a Rluc cells harboring a dicistronic NS5A chimeric genotype 1b Con1 replicon that encodes a RLuc reporter and either a consensus genotype 3a NS5A gene or genotype 4a NS5A gene (based on Los Alamos HCV database isolates) respectively, were dispensed into 384-well plates. Compounds were re-suspended in DMSO at a concentration of 10 mM and serially diluted in DMSO either manually or using an automated pipeting instrument. Serially diluted compounds were mixed with cell culture media and added to the seeded cells. […] 72 hours later, cells were lysed and Renilla luciferase activity quantified as recommended by the manufacturer (Promega-Madison, Wis.). Non-linear regression was performed to calculate EC50 values.
# [2] = test system: HCV 1b RLuc cells (dicistronic genotype 1b Con1 replicon, RLuc reporter); conditions: Hepatitis C virus, read-out: 1b (nM)
# Method: as §1
# [3] = test system: HCV 2a JFH-1 Rluc cells (dicistronic genotype 2a JFH-1 replicon, RLuc reporter); conditions: Hepatitis C virus, genotype 2a JFH-1 replicon, read-out: 2a JFH
# Method: as §1
# [4] = test system: HCV 3a RLuc cells (NS5A chimeric genotype 1b Con1 replicon with consensus genotype 3a NS5A gene); conditions: Hepatitis C virus
# Method: as §1
# [5] = test system: HCV 4a Rluc cells (NS5A chimeric genotype 1b Con1 replicon with genotype 4a NS5A gene); conditions: Hepatitis C virus, read-out: 4a
# Method: as §1
# [6] = read-out: 3a, genotype 3a replicon
# [7] = 72 h, Table 1, genotype 1a H77 replicon, 72 hours
# [8] = read-out: 3a, Table 1, genotype 3a NS5A chimeric replicon
# [9] = 72 h, Table 2, genotype 1a H77 replicon, 72 hours
# [10] = read-out: 3a, Table 2, genotype 3a NS5A chimeric replicon
SMILES,EC50 [5] [nM],"EC50 [1, 7] [nM]",EC50 ([2]; 72 h) [nM],"EC50 ([3]; 72 h, Table 1, 72 hours) [nM]","EC50 [4, 8] [nM]",further results
COC(=O)NC(C(=O)N1CCC[C@H]1c1ncc(-c2ccc3c(c2)OCc2cc(-c4ccc5nc([C@@H]6[C@H]7CC[C@H](C7)N6C(=O)[C@H](NC(=O)OC)c6ccccc6)[nH]c5c4)ccc2-3)[nH]1)[C@@H](C)OC (stereo in doubt) [Example 294],0.001 to 0.99,–,–,–,–,"EC50 ([1]; genotype 1a replicon): 0.001 to 0.999 nM; EC50 [2]: 0.01 nM; EC50 [3]: 0.001 to 0.999 nM; EC50 [4, 6]: 0.001 to 0.99 nM"
COC(=O)N[C@H](C(=O)N1CCCC1c1ncc(-c2cc3c4c(c2)OCc2cc(-c5cnc([C@@H]6CCCN6C(=O)[C@@H](NC(=O)OC)C6CCC6)[nH]5)cc(c2-4)OC3)[nH]1)C1CCC1 (stereo in doubt) [Example 376],0.001 to 0.99,–,–,–,–,"EC50 ([1]; genotype 1a replicon): 0.001 to 0.999 nM; EC50 [2]: 0.02 nM; EC50 [3]: 0.001 to 0.999 nM; EC50 [4, 6]: 0.001 to 0.99 nM"
COC(=O)N[C@H](C(=O)N1CCC[C@H]1c1ncc(-c2ccc3c(c2)COc2c-3ccc3cc(-c4cnc([C@@H]5CCCN5C(=O)[C@H](NC(=O)OC)c5ccccc5)[nH]4)ccc23)[nH]1)C1CCOCC1 [Example 4],0.001 to 0.99,0.001 to 0.999,0.11,0.001 to 0.999,0.001 to 0.99,–
COC(=O)N[C@@H](C(=O)N1CCC[C@H]1c1ncc(-c2ccc3c(c2)COc2c-3ccc3cc(-c4cnc([C@@H]5CCCN5C(=O)OCc5ccccc5)[nH]4)ccc23)[nH]1)c1ccccc1 [Example 5],0.001 to 0.99,> 44,0.037,1 to 44,0.001 to 0.99,–
COC(=O)N[C@H](C(=O)N1CCC[C@H]1c1ncc(-c2ccc3c(c2)COc2c-3ccc3cc(-c4cnc([C@@H]5CCCN5C(=O)OCc5ccccc5)[nH]4)ccc23)[nH]1)C1CCOCC1 [Example 6],0.001 to 0.99,1 to 44,0.051,1 to 44,> 5,–
COC(=O)N[C@@H](C)C(=O)N1CCC[C@H]1c1ncc(-c2ccc3c(c2)COc2c-3ccc3cc(-c4cnc([C@@H]5CCCN5C(=O)[C@H](NC(=O)OC)c5ccccc5)[nH]4)ccc23)[nH]1 [Example 7],0.001 to 0.99,0.001 to 0.999,0.008,0.001 to 0.999,0.001 to 0.99,–
COC(=O)NC(C(=O)N1CCC[C@@H]1c1ncc(-c2cc3c4c(c2)OCc2cc(-c5cnc([C@@H]6CCCN6C(=O)[C@@H](NC(=O)OC)C(C)C)[nH]5)cc(c2-4)OC3)[nH]1)C(C)C (some centres unmarked) [Example 10],0.001 to 0.99,1 to 44,0.406,0.001 to 0.999,0.001 to 0.99,–
COC(=O)N[C@H](C(=O)N1CCC[C@H]1c1ncc(-c2ccc3c(c2)COc2c-3ccc3cc(-c4cnc([C@@H]5CCCN5C(=O)[C@H](NC(=O)OC)c5ccccc5)[nH]4)ccc23)[nH]1)[C@@H](C)OC [Example 14],0.001 to 0.99,0.001 to 0.999,0.01,0.001 to 0.999,0.001 to 0.99,–
COC(=O)N[C@H](C(=O)N1CCC[C@H]1c1ncc(-c2ccc3c(c2)COc2c-3ccc3cc(-c4cnc([C@@H]5CCCN5C(=O)[C@@H](NC(=O)OC)[C@@H](C)OC)[nH]4)ccc23)[nH]1)C1CCOCC1 [Example 15],0.001 to 0.99,0.001 to 0.999,0.026,0.001 to 0.999,0.001 to 0.99,–
COC(=O)N[C@H](C(=O)N1CCC[C@H]1c1ncc(-c2ccc3c(c2)COc2c-3ccc3cc(-c4cnc([C@@H]5CCCN5C(=O)[C@@H](NC(=O)OC)[C@@H](C)OC)[nH]4)ccc23)[nH]1)[C@@H](C)OC [Example 17],0.001 to 0.99,0.001 to 0.999,0.014,0.001 to 0.999,> 5,–
COC(=O)N[C@H](C(=O)N1CCC[C@H]1c1ncc(-c2ccc3c4ccc(-c5cnc([C@@H]6CCCN6C(=O)[C@@H](NC(=O)OC)C(C)C)[nH]5)cc4c4nccnc4c3c2)[nH]1)C(C)C [Example 18],0.001 to 0.99,0.001 to 0.999,0.018,0.001 to 0.999,1 to 4.99,–
COC(=O)N[C@H](C(=O)N1CCC[C@H]1c1ncc(-c2ccc3c4ccc(-c5cnc([C@@H]6CCCN6C(=O)[C@@H](NC(=O)OC)C(C)C)[nH]5)cc4c4nc5ccccc5nc4c3c2)[nH]1)C(C)C [Example 19],0.001 to 0.99,1 to 44,0.01,1 to 44,> 5,–
COC(=O)N[C@H](C(=O)N1CCC[C@H]1c1ncc(-c2cc3c4c(c2)CCc2cc(-c5cnc([C@@H]6CCCN6C(=O)[C@@H](NC(=O)OC)C(C)C)[nH]5)cc(c2-4)CC3)[nH]1)C(C)C [Example 20],0.001 to 0.99,0.001 to 0.999,0.021,0.001 to 0.999,0.001 to 0.99,–
COC(=O)NC(C(=O)N1CCC[C@H]1c1ncc(-c2cc3c4c(c2)CCc2cc(-c5cnc([C@@H]6CCCN6C(=O)[C@@H](NC(=O)OC)[C@@H](C)OC)[nH]5)cc(c2-4)CC3)[nH]1)[C@@H](C)OC (some centres unmarked) [Example 21],0.001 to 0.99,0.001 to 0.999,0.06,0.001 to 0.999,0.001 to 0.99,–
COC(=O)N[C@H](C(=O)N1CCC[C@H]1c1ncc(-c2cc3c4c(c2)CCc2cc(-c5cnc([C@@H]6CCCN6C(=O)[C@@H](NC(=O)OC)C6CCOCC6)[nH]5)cc(c2-4)CC3)[nH]1)C(C)C [Example 23],0.001 to 0.99,0.001 to 0.999,0.067,0.001 to 0.999,0.001 to 0.99,–
COC(=O)N[C@H](C(=O)N1CCC[C@H]1c1ncc(-c2cc3c4c(c2)CCc2cc(-c5cnc([C@@H]6CCCN6C(=O)[C@@H](NC(=O)OC)[C@H](C)OC)[nH]5)cc(c2-4)CC3)[nH]1)C(C)C [Example 25],0.001 to 0.99,0.001 to 0.999,0.021,0.001 to 0.999,0.001 to 0.99,–
COC(=O)N[C@H](C(=O)N1CCC[C@H]1c1nc2ccc3cc(-c4ccc5cc(-c6cnc([C@@H]7[C@H]8CC[C@H](C8)N7C(=O)[C@H](NC(=O)OC)c7ccccc7)[nH]6)ccc5c4)ccc3c2[nH]1)C(C)C [Example 39],0.001 to 0.99,–,0.009,–,–,"EC50 [1, 9]: 0.001 to 0.999 nM; EC50 ([3]; 72 h, Table 2, 72 hours): 1 to 44 nM; EC50 [4, 10]: 1 to 4.99 nM"
COC(=O)N[C@H](C(=O)N1CCC[C@H]1c1ncc(-c2ccc3c(c2)C(F)(F)c2cc(-c4ccc5nc([C@@H]6[C@H]7CC[C@H](C7)N6C(=O)[C@H](NC(=O)OC)c6ccccc6)[nH]c5c4)ccc2-3)[nH]1)C(C)C [Example 40],0.001 to 0.99,–,0.005,–,–,"EC50 [1, 9]: 0.001 to 0.999 nM; EC50 ([3]; 72 h, Table 2, 72 hours): 0.001 to 0.999 nM; EC50 [4, 10]: 1 to 4.99 nM"
COC(=O)N[C@H](C(=O)N1[C@@H]2CC[C@@H](C2)[C@H]1c1nc2ccc(-c3ccc4c(c3)C(F)(F)c3cc(-c5cnc([C@@H]6CCCN6C(=O)[C@H](NC(=O)OC)c6ccccc6)[nH]5)ccc3-4)cc2[nH]1)C(C)C [Example 41],0.001 to 0.99,–,0.005,–,–,"EC50 [1, 9]: 0.001 to 0.999 nM; EC50 ([3]; 72 h, Table 2, 72 hours): 0.001 to 0.999 nM; EC50 [4, 10]: 0.001 to 0.99 nM"
COC(=O)N[C@H](C(=O)N1[C@@H]2CC[C@@H](C2)[C@H]1c1ncc(-c2ccc(-c3ccc4cc(-c5cnc([C@@H]6CCCN6C(=O)[C@H](NC(=O)OC)c6ccccc6)[nH]5)ccc4c3)cc2)[nH]1)C(C)C [Example 42],0.001 to 0.99,–,0.008,–,–,"EC50 [1, 9]: 0.001 to 0.999 nM; EC50 ([3]; 72 h, Table 2, 72 hours): 0.001 to 0.999 nM; EC50 [4, 10]: 1 to 4.99 nM"
COC(=O)N[C@@H](C)C(=O)N1CCC[C@H]1c1nc2c([nH]1)-c1ccc(-c3ccc4cc(-c5cnc([C@@H]6CCCN6C(=O)[C@H](NC(=O)OC)c6ccccc6)[nH]5)ccc4c3)cc1CC2 [Example 272],1 to 4.99,–,–,–,–,"EC50 ([1]; genotype 1a H77 replicon, RLuc reporter): > 44 nM; EC50 ([3]; RLuc reporter): > 44 nM; EC50 ([4]; read-out: 3a, genotype 3a NS5A chimeric 1b Con1 replicon): > 5 nM"
